Reference: patent US7763625B2, “Agents for treating migraine” (Kyowa Hakko Kirin Co., Ltd., priority 2004, dated 2010)

Tested on: basilar (cerebral) arteries
Assay: Contractile effects on basilar arteries (suppression of adenosine-induced relaxation of isolated cerebral artery rings)
Parameters: species or system Dogs
Settings: isolated dog basilar artery rings relaxed with adenosine; test compound added cumulatively; in comparison with the Vehicle group
Description: Dogs were anesthetized by intravenous injection of sodium pentobarbital, after which they were euthanized by exsanguination and subjected to craniotomy.
The basilar (cerebral) arteries were removed and cut into rings segments of about 2 mm in width. Each ring segment was fixed with a silk thread to a needle cut into about 2 mm in length. The needle was attached to a holder provided in an Easy-Magnus System (Model no. UC-2; IWASHIYA KISHIMOTO MEDICAL INSTRUMENTS); the ring segments were immersed in a nutritive solution and allowed to stabilize at a resting tension of 0.2 g (1.96 mN) for more than 60 minutes. Into the organ bath (2 mL) of the Easy-Magnus System, the cerebral artery was relaxed by application of 2 μL of 10 mmol/L adenosine aqueous solution. After that, the test compound was added cumulatively; 1 μL of 0.2 mmol/L dimethylsulfoxide solution, 1 μL of 0.4 mmol/L dimethylsulfoxide solution, and 0.7 μL of 2 mmol/L dimethylsulfoxide solution in order (Test compound-added group). Separately, in the same manner as in the Test compound-added group, dimethylsulfoxide alone was cumulatively added in place of the test compound (Vehicle group). The contraction of the cerebral artery was recorded on a recorder (Yokogawa) from an isometric force transducer (Nihon Kohden) connected to the holder, to which the ring was fixed, through a strain-pressure amplifier (Nihon Kohden). […]

Question: How did the “suppression of the adenosine-induced relaxation of the cerebral artery” value turn out when CCn1c(=O)c2c(nc(/C=C/c3ccc(OC)c(OC)c3)n2C)n(CC)c1=O [Compound 2] was run?
Answer: Its value is “dose-dependently and significantly suppressed”.
